Values of other authors as cited in patent US20050260283A1, “Composition for prevention and treatment of colon adenomas” (Medical Futures Inc., priority 2004, published 2005).

Columns and labels:
colorectal cancer = settings: regular aspirin use; epidemiological studies (Krishnan, 1997)
colorectal adenomas = settings: calcium supplementation; volunteers with a history of colorectal adenomas (Baron, 1999)

SMILES	reduction in the incidence of colorectal cancer (colorectal cancer)	risk of recurrent colorectal adenomas (colorectal adenomas)
CC(=O)Oc1ccccc1C(=O)O [aspirin]	40-50%	
O=C([O-])[O-].[Ca+2] [calcium carbonate]		moderate but significant reduction
